Tests used:
Type in all cases: cell-based
Trichophyton rubrum = assay: Antifungal activity in vitro, resazurin growth inhibition: Trichophyton rubrum (B68183)
In short: (§1)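 Resazurin conversion to fluorescent resorufin (ex 550/em 590 nm) served as the growth readout. Compounds spanned 2- or 4-fold serial dilutions with 64 μM top in-test concentration; inoculum 10^3 cfu per well in MOPS-buffered RPMI-1640 (pH 7.0, 2% glucose). Incubation species-dependent, dermatophytes at 27° C. for ≥1 week.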

Microsporum canis = assay: Antifungal activity in vitro, resazurin growth inhibition: Microsporum canis (B68128)
In short: as §1

[1] = test system: Trichophyton mentagrophytes; assay: Antifungal activity in vitro, resazurin growth inhibition: Trichophyton mentagrophytes (B70554)
In short: as §1

Candida parapsilosis = assay: Antifungal activity in vitro, resazurin growth inhibition: Candida parapsilosis (B66126)
In short: (§2)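 Fungi (10^3 cfu/well) grown in RPMI-1640 with L-glutamine, 2% glucose, MOPS pH 7.0, against 2- or 4-fold compound dilutions up to 64 μM. Dermatophytes incubated one week or more at 27° C. Growth inhibition read fluorimetrically (λex 550, λem 590 nm) after resazurin addition and further incubation.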

Cryptococcus neoformans = assay: Antifungal activity in vitro, resazurin growth inhibition: Cryptococcus neoformans (B66663)
In short: as §2

Sporothrix schenkii = assay: Antifungal activity in vitro, resazurin growth inhibition: Sporothrix schenkii (B62482)
In short: as §2

Aspergillus fumigatus = assay: Antifungal activity in vitro, resazurin growth inhibition: Aspergillus fumigatus (B42928)
In short: as §2

Row | SMILES | Inf. C: Trichophyton rubrum B68183, pIC50 (Trichophyton rubrum) | Inf. B: Microsporum canis B68128, pIC50 (Microsporum canis) | Inf. G: Trichophyton mentagrophytes B70554, pIC50 [1] | Inf. D: Candida parapsilosis B66126, pIC50 (Candida parapsilosis) | Inf. F: Cryptococcus neoformans B66663, pIC50 (Cryptococcus neoformans) | Inf. A: Sporothrix schenkii B62482, pIC50 (Sporothrix schenkii) | Inf. E: Aspergillus fumigatus B42928, pIC50 (Aspergillus fumigatus)
1 | COc1cccc2cc(C3=NCc4c(Cl)cc(Cl)cc4-n4cccc43)oc12 [Compound 145] | 5.11 | 4.81 | <4.19 | <4.19 | <4.19 | <4.19 | <4.19
2 | COc1ccc2oc(C3=NCc4ccc(Cl)cc4-n4cccc43)cc2c1 [Compound 147] | 5.35 | 5.66 | <4.19 | <4.19 | <4.19 | <4.19 | <4.19
3 | COc1ccc2oc(C3=NCc4c(Cl)cc(Cl)cc4-n4cccc43)cc2c1 [Compound 148] | 5.04 | 5.82 | 4.19 | <4.19 | <4.19 | <4.19 | <4.19
4 | Clc1ccc(Cl)c2c1CN=C(c1ccc3ccoc3c1)c1cccn1-2 [Compound 151] | 4.95 | <4.19 | <4.19 | <4.19 | <4.19 | <4.19 | <4.19
5 | Fc1cccc2c1CN=C(c1ccc3occ(Cl)c3c1)c1cccn1-2 [Compound 153] | <4.19 | <4.19 | <4.19 | 5.00 | 5.16 | <4.19 | <4.19
6 | Fc1cc(F)c2c(c1)-n1cccc1C(c1ccc3occ(Cl)c3c1)=NC2 [Compound 154] | <4.19 | <4.19 | <4.19 | <4.19 | <4.19 | <4.19 | <4.19
7 | Clc1cc2cc(C3=NCc4c(Cl)cccc4-n4cccc43)ccc2o1 [Compound 155] | 7.15 | 6.82 | 6.82 | 4.94 | 5.81 | 5.66 | 5.88
8 | Clc1cccc2c1CN=C(c1ccc3c(Cl)coc3c1)c1cccn1-2 [Compound 156] | <4.19 | <4.19 | 4.49 | <4.19 | 4.51 | <4.19 | 4.48
9 | COc1cccc2cc(C3=NCc4ccccc4-n4cccc43)oc12 [Compound 157] | 6.58 | 5.79 | 5.96 | 4.61 | <4.49 | <4.49 | <4.49
10 | Clc1cc2oc(C3=NCc4c(Cl)cccc4-n4cccc43)cc2cn1 [Compound 159] | 6.46 | 6.41 | <4.49 | <4.49 | <4.49 | <4.49 | <4.49
11 | Cc1nc(Cl)cc2cc(C3=NCc4c(Cl)cccc4-n4cccc43)oc12 [Compound 160] | 5.84 | 5.03 | 5.48 | <4.49 | 5.61 | <4.49 | 5.85
12 | Cc1nc2ccc(C3=NCc4c(Cl)cccc4-n4cccc43)cc2o1 [Compound 162] | 5.61 | 5.23 | 5.21 | <4.19 | 4.49 | 4.22 | 4.36
13 | Cc1ccc(Cl)c2c1-n1cccc1C(c1cc3ccccc3s1)=NC2 [Compound 169] | 6.01 | 5.00 | <4.19 | <4.19 | <4.19 | <4.19 | <4.19
14 | Fc1cccc2cc(C3=NCc4c(Cl)cc(Cl)cc4-n4cccc43)sc12 [Compound 171] | 5.73 | <4.19 | <4.19 | <4.19 | 6.50 | <4.19 | <4.19
15 | Clc1cccc2c1CN=C(c1ccc3scc(Cl)c3c1)c1cccn1-2 [Compound 177] | <4.19 | <4.19 | <4.19 | <4.19 | 5.73 | <4.19 | <4.19
16 | Clc1ccc2c(c1)-n1cccc1C(c1ccc3scc(Cl)c3c1)=NC2 [Compound 178] | 4.37 | <4.19 | 4.26 | <4.19 | 6.49 | <4.19 | 5.93
17 | Clc1cccc2c1-n1cccc1C(c1ccc3scc(Cl)c3c1)=NC2 [Compound 179] | 5.03 | 4.80 | 4.69 | <4.19 | 4.67 | 4.41 | 4.49
18 | Clc1cccc2c1CN=C(c1nc3ccccc3s1)c1cccn1-2 [Compound 180] | 6.03 | 4.40 | 4.39 | <4.19 | <4.19 | <4.19 | <4.19
19 | Cl.Clc1cccc2c1CN=C(c1nc3ccccc3s1)c1cccn1-2 [Compound 181] | 5.94 | 5.69 | 4.98 | <4.19 | <4.19 | <4.19 | <4.19

From patent publication US9493468B2, “Antifungal 5,6-dihydro-4H-pyrrolo[1,2-a][1,4]benzo-diazepines and 6H-pyrrolo[1,2-a][1,4]benzodiazepines substituted with heterocyclic derivatives” (Janssen Pharmaceutica NV, priority 2011, dated 2016)
